Source: US20260144788A1, “COMPOUND FOR SHP2 PROTEIN DEGRADATION AND MEDICAL USES THEREOF” (UBIX THERAPEUTICS, INC., priority 2022, published 2026)

Target: T1, SHP2 protein (Homo sapiens, UniProt Q06124)
T1 sequence (Q06124 1-593): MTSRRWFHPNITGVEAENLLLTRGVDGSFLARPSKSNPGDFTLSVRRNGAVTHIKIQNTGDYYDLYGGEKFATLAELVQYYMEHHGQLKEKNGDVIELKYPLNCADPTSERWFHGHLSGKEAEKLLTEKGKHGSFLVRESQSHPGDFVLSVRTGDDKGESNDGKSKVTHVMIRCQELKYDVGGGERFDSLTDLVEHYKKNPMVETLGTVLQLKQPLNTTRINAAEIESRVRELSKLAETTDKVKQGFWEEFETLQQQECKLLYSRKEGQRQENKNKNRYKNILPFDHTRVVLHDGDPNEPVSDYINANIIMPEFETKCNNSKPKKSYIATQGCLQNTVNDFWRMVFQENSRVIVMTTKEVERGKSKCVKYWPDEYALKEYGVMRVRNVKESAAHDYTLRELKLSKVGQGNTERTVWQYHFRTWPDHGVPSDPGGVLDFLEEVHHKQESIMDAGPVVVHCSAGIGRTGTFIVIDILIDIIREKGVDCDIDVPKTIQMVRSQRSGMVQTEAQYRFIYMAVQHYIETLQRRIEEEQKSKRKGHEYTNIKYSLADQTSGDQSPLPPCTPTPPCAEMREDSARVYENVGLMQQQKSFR
Assay: Measurement of SHP2 protein degradation in MV-4-11 cells (western blotting)
Type: cell-based
Parameters: endogenous in cells
Conditions: harvested after 24 hours
Procedure, shortened: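 MV-4-11 cells in IMDM/5% FBS were exposed to compound at final 0.01, 0.1, 1 μM or 0.001, 0.01, 0.1 μM for 24 h, DMSO as negative control. BCA-normalised lysates were immunoblotted for SHP2 with GAPDH as loading control, read on LI-COR Odyssey.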

SMILES	SHP2% degradation (0.01 μM)	SHP2% degradation (0.1 μM)
Cc1ncsc1-c1ccc(CNC(=O)[C@@H]2C[C@@H](O)CN2C(=O)[C@@H](NC(=O)C2(F)CC2)C(C)(C)C)c(OC2CCN(C(=O)C3CCN(c4nccc(Sc5cnc(N6CCC(C)(CN)CC6)cn5)c4Cl)CC3)CC2)c1 [Example 65, (2S,4R)—N-(2-((1-(1-(4-((5-(4-(aminomethyl)-4-methylpiperidin-1-yl)pyrazin-2-yl)thio)-3-chloropyridin-2-yl)piperidine-4-carbonyl)piperidin-4-yl)oxy)-4-(4-methylthiazol-5-yl)benzyl)-1-((S)-2-(1-fluorocyclopropane-1-carboxamido)-3,3-dimethylbutanoyl)-4-hydroxypyrrolidine-2-carboxamide]	85.2%	98.1%
Cc1ncsc1-c1ccc(CNC(=O)[C@@H]2C[C@@H](O)CN2C(=O)[C@@H](NC(=O)C2(F)CC2)C(C)(C)C)c(OC2CCN(C(=O)C3CCN(c4nccc(Sc5cnc(N6CCC(C)(N)CC6)cn5)c4Cl)CC3)CC2)c1 [Example 66, (2S,4R)—N-(2-((1-(1-(4-((5-(4-amino-4-methylpiperidin-1-yl)pyrazin-2-yl)thio)-3-chloropyridin-2-yl)piperidine-4-carbonyl)piperidin-4-yl)oxy)-4-(4-methylthiazol-5-yl)benzyl)-1-((S)-2-(1-fluorocyclopropane-1-carboxamido)-3,3-dimethylbutanoyl)-4-hydroxypyrrolidine-2-carboxamide]	78.6%	99.6%
Cc1ncsc1-c1ccc(CNC(=O)[C@@H]2C[C@@H](O)CN2C(=O)[C@@H](NC(=O)C2(F)CC2)C(C)(C)C)c(OC2CCN(C(=O)C3(C)CCN(c4nccc(Sc5cnc(N6CCC(C)(CN)CC6)cn5)c4Cl)CC3)CC2)c1 [Example 68, (2S,4R)—N-(2-((1-(1-(4-((5-(4-(aminomethyl)-4-methylpiperidin-1-yl)pyrazin-2-yl)thio)-3-chloropyridin-2-yl)-4-methylpiperidine-4-carbonyl)piperidin-4-yl)oxy)-4-(4-methylthiazol-5-yl)benzyl)-1-((S)-2-(1-fluorocyclopropane-1-carboxamido)-3,3-dimethylbutanoyl)-4-hydroxypyrrolidine-2-carboxamide]	−22.1%	95.7%
Cc1ncsc1-c1ccc(CNC(=O)[C@@H]2C[C@@H](O)CN2C(=O)[C@@H](NC(=O)C2(F)CC2)C(C)(C)C)c(OC2CCN(C(=O)C3(F)CCN(c4nccc(Sc5cnc(N6CCC(C)(CN)CC6)cn5)c4Cl)CC3)CC2)c1 [Example 69, (2S,4R)—N-(2-((1-(1-(4-((5-(4-(aminomethyl)-4-methylpiperidin-1-yl)pyrazin-2-yl)thio)-3-chloropyridin-2-yl)-4-fluoropiperidine-4-carbonyl)piperidin-4-yl)oxy)-4-(4-methylthiazol-5-yl)benzyl)-1-((S)-2-(1-fluorocyclopropane-1-carboxamido)-3,3-dimethylbutanoyl)-4-hydroxypyrrolidine-2-carboxamide]	19.9%	99.8%
Cc1ncsc1-c1ccc(CNC(=O)[C@@H]2C[C@@H](O)CN2C(=O)[C@@H](NC(=O)C2(F)CC2)C(C)(C)C)c(OC2CCN(C(=O)C3(O)CCN(c4nccc(Sc5cnc(N6CCC(C)(CN)CC6)cn5)c4Cl)CC3)CC2)c1 [Example 70, (2S,4R)—N-(2-((1-(1-(4-((5-(4-(aminomethyl)-4-methylpiperidin-1-yl)pyrazin-2-yl)thio)-3-chloropyridin-2-yl)-4-hydroxypiperidine-4-carbonyl)piperidin-4-yl)oxy)-4-(4-methylthiazol-5-yl)benzyl)-1-((S)-2-(1-fluorocyclopropane-1-carboxamido)-3,3-dimethylbutanoyl)-4-hydroxypyrrolidine-2-carboxamide]	84.5%	99.9%
Cc1ncsc1-c1ccc(CNC(=O)[C@@H]2C[C@@H](O)CN2C(=O)[C@@H](NC(=O)C2(F)CC2)C(C)(C)C)c(OC2CCN(C(=O)CC3CCN(c4nccc(Sc5cnc(N6CCC(C)(CN)CC6)cn5)c4Cl)CC3)CC2)c1 [Example 71, (2S,4R)—N-(2-((1-(2-(1-(4-((5-(4-(aminomethyl)-4-methylpiperidin-1-yl)pyrazin-2-yl)thio)-3-chloropyridin-2-yl)piperidin-4-yl)acetyl)piperidin-4-yl)oxy)-4-(4-methylthiazol-5-yl)benzyl)-1-((S)-2-(1-fluorocyclopropane-1-carboxamido)-3,3-dimethylbutanoyl)-4-hydroxypyrrolidine-2-carboxamide]	60.0%	99.4%
Cc1ncsc1-c1ccc(CNC(=O)[C@@H]2C[C@@H](O)CN2C(=O)[C@@H](NC(=O)C2(F)CC2)C(C)(C)C)c(OC2CCN(C(=O)CC3(O)CCN(c4nccc(Sc5cnc(N6CCC(C)(CN)CC6)cn5)c4Cl)CC3)CC2)c1 [Example 72, (2S,4R)—N-(2-((1-(2-(1-(4-((5-(4-(aminomethyl)-4-methylpiperidin-1-yl)pyrazin-2-yl)thio)-3-chloropyridin-2-yl)-4-hydroxypiperidin-4-yl)acetyl)piperidin-4-yl)oxy)-4-(4-methylthiazol-5-yl)benzyl)-1-((S)-2-(1-fluorocyclopropane-1-carboxamido)-3,3-dimethylbutanoyl)-4-hydroxypyrrolidine-2-carboxamide]	91.5%	99.8%
Cc1ncsc1-c1ccc(CNC(=O)[C@@H]2C[C@@H](O)CN2C(=O)[C@@H](NC(=O)C2(F)CC2)C(C)(C)C)c(OC2CN(C(=O)C3CCN(c4nccc(Sc5cnc(N6CCC(C)(CN)CC6)cn5)c4Cl)CC3)C2)c1 [Example 73, (2S,4R)—N-(2-((1-(1-(4-((5-(4-(aminomethyl)-4-methylpiperidin-1-yl)pyrazin-2-yl)thio)-3-chloropyridin-2-yl)piperidine-4-carbonyl)azetidin-3-yl)oxy)-4-(4-methylthiazol-5-yl)benzyl)-1-((S)-2-(1-fluorocyclopropane-1-carboxamido)-3,3-dimethylbutanoyl)-4-hydroxypyrrolidine-2-carboxamide]	65.8%	97.7%
CC(=O)N[C@H](C(=O)N1C[C@H](O)C[C@H]1C(=O)NCc1ccc(-c2scnc2C)cc1OC1CCN(C(=O)[C@H]2C[C@@H](Nc3nccc(Sc4cnc(N5CCC(C)(CN)CC5)cn4)c3Cl)C2)CC1)C(C)(C)C [Example 74, (2S,4R)-1-((S)-2-acetamido-3,3-dimethylbutanoyl)-N-(2-((1-((1S,3R)-3-((4-((5-(4-(aminomethyl)-4-methylpiperidin-1-yl)pyrazin-2-yl)thio)-3-chloropyridin-2-yl)amino)cyclobutanecarbonyl)piperidin-4-yl)oxy)-4-(4-methylthiazol-5-yl)benzyl)-4-hydroxypyrrolidine-2-carboxamide]	97.0%	99.8%
CC(=O)N[C@H](C(=O)N1C[C@H](O)C[C@H]1C(=O)NCc1ccc(-c2scnc2C)cc1OC1CCN(C(=O)C2CCN(c3nccc(Sc4cnc(N5CCC(C)(CN)CC5)cn4)c3Cl)CC2)CC1)C(C)(C)C [Example 75, (2S,4R)-1-((S)-2-acetamido-3,3-dimethylbutanoyl)-N-(2-((1-(1-(4-((5-(4-(aminomethyl)-4-methylpiperidin-1-yl)pyrazin-2-yl)thio)-3-chloropyridin-2-yl)piperidine-4-carbonyl)piperidin-4-yl)oxy)-4-(4-methylthiazol-5-yl)benzyl)-4-hydroxypyrrolidine-2-carboxamide]	97.0%	99.3%
